Assay results as given in patent publication US7319086B1, “Method of prophylaxis and treatment and agents useful for same” (priority 1999, dated 2008).

Tests used:
Design in all cases: species or system P. gingivalis
[1] = test system: rHA2; test: directed porphyrin binding: porphyrins linked by carbodiimide to ethylene diamine-coated wells; conditions: propionic acid groups linked to fixed amines, compared with non-derivatized porphyrin; 125 ng/ml rHA2
Description: Microtiter wells were coated with 100 mM ethylene diamine (pH 4.7) then incubated with 90 μg/ml hemin, protoporphyrin IX, or hematoporphyrin overnight in 50% dimethyl formamide in the presence (+) or absence (−) of 10 mM carbodiimide. Wells were washed 4 times with water then the amount of porphyrin bound to the wells was determined by absorbance at 414 nm (striped bars). […] Error bars represent standard deviation of absorbance measurements. Diagrams of chemical structures for hemin, protoporphyrin IX, and hematoporphyrin are presented adjacent to corresponding data.
The inventors reasoned, therefore, that blocking access to the acidic region of protoporphyrin molecules would have an effect on rHA2-binding and allow more specific characterization of binding between the HA2 domain and the porphyrin ring. Modifying the ligand binding assay system used above, surfaces were first coated with ethylene diamine to provide fixed, free, primary amines for carbodiimide linkage of carboxylic acid groups.

[2] = target: binding of rHA2 or the gingipains (RgpA, Kgp) to hemin (Porphyromonas gingivalis, UniProt Q51816, A1188S/A1219P/Q1165E); test: solution-phase competition assay, hemin-coated wells; conditions: read-out: IC50, inhibition of binding to hemin
Description: (§1) Data are representative of two separate experiments. The absence of contaminating protein in a 90 μg protoporphyrin IX preparation was verified by SDS-PAGE and by Coomassie dye binding.
(§2) The IC50s for ligand binding in solution phase competition assays were determined. […] Hemoglobin was used as it was considered to represent the dominant form of porphyrin presentation in the pathological environment of chronic periodontitis.

[3] = target: binding of rHA2 or the gingipains (RgpA, Kgp) to hemoglobin (Porphyromonas gingivalis, UniProt Q51816, A1188S/A1219P/Q1165E); test: solution-phase competition assay, hemoglobin-coated wells (rHA2 or gingipains); conditions: preincubated 1 hr, read-out: IC50, inhibition of binding to hemoglobin
Description: as §1, §2

Compound	rHA2-binding to carbodiimide-treated porphyrin [1]	IC50 [2]	IC50 [3]
hemin	almost eliminated	–	–
C=CC1=C(C)c2cc3[nH]c(cc4nc(cc5[nH]c(cc1n2)c(C)c5CCC(=O)O)C(CCC(=O)O)=C4C)c(C)c3C=C [protoporphyrin IX]	–	~2.5 µM	10 ± 2 µM
